Experimental data as given in patent US10508089B2, “Use of N-(1,3,4-Oxadiazol-2-yl)arylcarboxamides or their salts for controlling unwanted plants in areas of transgenic crop plants being tolerant to HPPD inhibitor herbicides” (BASF SE, priority 2014, dated 2019).
pIC50: −log10 of the molar value.

What was measured:
FMP 37 SEQ ID No 9 = FMP 37 SEQ ID No 9 (Blepharisma japonicum, UniProt A8R3H6); assay: Determination of HPPD activity in presence of N-(1,3,4-Oxadiazol-2-yl)arylcarboxamides (pI50); assay type: biochemical; details: negative log of molar concentration; inhibitor 0.1 to 100 μM; room temperature; 600 μM HPP
Method: (§1) HPPD activity was measured at room temperature by adding appropriate amounts of HPPD to a solution of 200 mM Tris-HCl pH 7.6, 10 mM ascorbate, 20 μM FeSO4, 650 units of catalase, 8 μg HGA dioxygenase (HGA: homogentisate) and 600 μM HPP in a total volume of 1 ml. Initial reaction rates in the absence or presence of inhibitors were determined from the increase in absorbance at 318 nm due to the formation of maleylacetoacetate (ϵ318=11,900 M−1 cm−1). pI50-values (the negative log values of the concentration of inhibitor necessary to inhibit 50% of the enzyme activity in molar concentration were determined from dose-response plots of HPPD activity versus inhibitor concentrations tested (0.1 to 100 μM) using the 4 Parameter Logistic Model or Sigmoidal Dose-Response Model of the ID Business Solutions Ltd. XLfit software suite. Due to the UV absorption of the HPPD inhibitors tested, inhibitor concentrations >100 μM could not be tested. In cases, the symbol “>” is used this means that the value was far higher than the one indicated but could not be precisely calculated within in the range of concentration of inhibitor tested.
(§2) In the 1st column of Table 8, the chemical compound employed in the assay is named (according to the numbering of the Tables 1 to 7, above). In columns 2, 3, 4, and 5 the pI50-values of the corresponding chemical compounds against various HPPD enzymes (name and SEQ ID Nos are indicated, respectively) are given.

Avena HPPD SEQ ID No 2 = Avena HPPD SEQ ID No 2 (Avena sativa, UniProt A0ACD5V6K6); assay: as above; assay type: biochemical; details: negative log of molar concentration; inhibitor 0.1 to 100 μM; room temperature; 600 μM HPP
Method: as §1, §2

[1] = molecular target: PfHPPD Evo 40 SEQ ID No 27 (Pseudomonas sp., UniProt P80064, A172V/A339E/A53E/D148E/D45N/E105D/E287Q/E300V/E334P/F143Y/G286D/G335S/H150N/H254A/H63N/I158V/I187A/I249V/K92N/L18F/N24G/N280D/S245T/S257K/S301E/T205S/V65I); assay: biochemical; parameters: species or system Pseudomonas fluorescens
[2] = molecular target: PfHPPD Evo 41 SEQ ID No 29 (Pseudomonas sp., UniProt P80064, A172V/A339Q/A53E/D148E/D45N/E105D/E287Q/E300V/E334P/F143Y/G286D/G335W/H150N/H254A/H63N/I158V/I187A/I249V/K338A/K92N/L18F/N24G/N280D/S245T/S257K/S301E/T205S/V65I); assay: biochemical; parameters: species or system Pseudomonas fluorescens
PfHPPDEvo40 = PfHPPDEvo40 (Pseudomonas sp., UniProt P80064, A172V/A339E/A53E/D148E/D45N/E105D/E287Q/E300V/E334P/F143Y/G286D/G335S/H150N/H254A/H63N/I158V/I187A/I249V/K92N/L18F/N24G/N280D/S245T/S257K/S301E/T205S/V65I); assay: Brown color assay of HPPD extracts on solid media containing an HPPD inhibitor; details: 250 uM inhibitor in solid media
wild-type soybean shoots = assay: Soybean transformation, selection of shoots with HPPD inhibitor; assay type: in vivo; details: wild-type soybean shoots treated with the same amount of the respective HPPD inhibitor
Excerpt: (§3) Soybean transformation was achieved by using methods by best mode well known in the art, such as the one described using the Agrobacterium tumefaciens mediated transformation soybean half-seed explants using essentially the method described by Paz et al. (2006), Plant cell Rep. 25:206. Transformants were identified using various HPPD inhibitors tembotrione or isoxaflutole as selection marker. The appearance of green shoots can be observed, and documented as an indicator of tolerance to the respective herbicide.

[3] = tested on: tolerant transgenic soybean shoots; assay: as above; assay type: in vivo; details: compared with untreated wild-type soybean shoots
Excerpt: as §3

Chain of Avena HPPD SEQ ID No 2 (A0ACD5V6K6 entry or part of it): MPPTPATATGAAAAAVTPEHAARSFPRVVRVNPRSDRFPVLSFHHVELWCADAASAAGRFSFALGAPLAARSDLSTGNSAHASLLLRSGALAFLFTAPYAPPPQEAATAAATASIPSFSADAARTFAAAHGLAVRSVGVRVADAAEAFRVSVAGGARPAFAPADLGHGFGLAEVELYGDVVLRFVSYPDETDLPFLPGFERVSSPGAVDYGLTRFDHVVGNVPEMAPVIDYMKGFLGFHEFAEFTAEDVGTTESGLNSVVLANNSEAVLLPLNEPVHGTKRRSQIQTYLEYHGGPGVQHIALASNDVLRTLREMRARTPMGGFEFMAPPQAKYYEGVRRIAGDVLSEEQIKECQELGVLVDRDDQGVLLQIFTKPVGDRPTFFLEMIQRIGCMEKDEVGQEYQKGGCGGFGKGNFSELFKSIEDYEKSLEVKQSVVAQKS
Chain of PfHPPD Evo 41 SEQ ID No 29 (P80064 1-354 with tags or gaps with the stated changes limits assumed): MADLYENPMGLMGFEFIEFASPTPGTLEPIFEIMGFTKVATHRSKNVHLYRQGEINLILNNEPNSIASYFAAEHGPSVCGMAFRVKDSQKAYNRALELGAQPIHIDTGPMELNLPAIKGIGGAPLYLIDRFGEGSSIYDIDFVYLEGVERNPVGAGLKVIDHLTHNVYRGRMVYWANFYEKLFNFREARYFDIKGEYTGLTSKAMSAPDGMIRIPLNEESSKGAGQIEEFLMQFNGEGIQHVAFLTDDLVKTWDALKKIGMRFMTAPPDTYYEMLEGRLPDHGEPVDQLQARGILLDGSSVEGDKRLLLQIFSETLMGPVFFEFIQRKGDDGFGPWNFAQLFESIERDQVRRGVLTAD
Chain of FMP 37 SEQ ID No 9 (A8R3H6 entry or part of it): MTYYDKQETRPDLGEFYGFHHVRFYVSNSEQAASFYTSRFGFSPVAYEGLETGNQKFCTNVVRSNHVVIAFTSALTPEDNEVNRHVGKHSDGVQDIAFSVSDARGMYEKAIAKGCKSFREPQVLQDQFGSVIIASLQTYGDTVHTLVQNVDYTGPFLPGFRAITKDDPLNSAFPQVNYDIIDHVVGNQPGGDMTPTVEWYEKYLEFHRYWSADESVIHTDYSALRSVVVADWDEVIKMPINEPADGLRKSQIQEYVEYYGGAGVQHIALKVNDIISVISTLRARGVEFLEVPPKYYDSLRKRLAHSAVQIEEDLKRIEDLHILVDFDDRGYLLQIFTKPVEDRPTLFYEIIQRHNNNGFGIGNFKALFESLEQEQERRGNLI
Chain of PfHPPD Evo 40 SEQ ID No 27 (P80064 1-354 with tags or gaps with the stated changes limits assumed): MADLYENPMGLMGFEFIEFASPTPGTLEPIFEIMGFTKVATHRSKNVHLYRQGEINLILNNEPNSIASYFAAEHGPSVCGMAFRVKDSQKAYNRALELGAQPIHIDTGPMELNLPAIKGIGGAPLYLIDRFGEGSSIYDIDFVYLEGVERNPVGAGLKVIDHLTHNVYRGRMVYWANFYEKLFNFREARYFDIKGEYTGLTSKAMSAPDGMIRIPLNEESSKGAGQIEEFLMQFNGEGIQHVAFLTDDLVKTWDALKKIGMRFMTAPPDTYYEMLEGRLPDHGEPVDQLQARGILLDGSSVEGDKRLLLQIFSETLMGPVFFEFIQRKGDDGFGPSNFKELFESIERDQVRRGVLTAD

| SMILES | pIC50 (FMP 37 SEQ ID No 9) | pIC50 (Avena HPPD SEQ ID No 2) | pIC50 [1] | pIC50 [2] | tolerance of variant PfHPPDEvo40 compared to PfHPPD336W (brown pigment formation, titration of extract) (PfHPPDEvo40) | appearance of shoots under HPPD inhibitor selection (wild-type soybean shoots) | appearance of shoots under HPPD inhibitor selection [3] |
| --- | --- | --- | --- | --- | --- | --- | --- |
| Cc1nnc(NC(=O)c2ccc(C(F)(F)F)c([S+](C)[O-])c2C)o1 (centres unmarked) [Compound 2-144] | 4.90 | 5.40 | 5.20 | 5.00 | – | – | – |
| Cc1nnc(NC(=O)c2ccc(C(F)(F)F)c([S+](C)[O-])c2Cl)o1 (centres unmarked) [Compound 2-360] | 4.70 | 5.40 | 4.80 | 4.70 | – | – | – |
| Cc1nnc(NC(=O)c2ccc(C(F)(F)F)c(S(C)(=O)=O)c2Cl)o1 [Compound 2-361] | 4.90 | 5.80 | 5.30 | 5.10 | – | – | – |
| Cc1nnc(NC(=O)c2ccc(C(F)(F)F)c(-n3cccn3)c2Cl)o1 [Compound 2-363] | 5.00 | 5.80 | 5.20 | 4.90 | – | – | – |
| Cc1nnc(NC(=O)c2ccc(C(F)(F)F)c(OCCF)c2Cl)o1 [Compound 2-364] | 5.10 | 5.80 | 4.90 | 4.50 | – | – | – |
| COCc1nnc(NC(=O)c2ccc(C(F)(F)F)c(S(C)(=O)=O)c2C)o1 [Compound 5-145] | 5.00 | 5.50 | > 5.30 | > 5.30 | – | – | – |
| Cc1c(C(=O)Nc2nnc(C3CC3)o2)ccc(C(F)(F)F)c1[S+](C)[O-] (centres unmarked) [Compound 6-37] | 3.80 | 4.40 | 3.90 | 3.80 | – | – | – |
| Cc1nnc(NC(=O)c2ccc(C(F)(F)F)nc2C)o1 [Compound 7-132] | 5.10 | 4.80 | 3.70 | 3.60 | – | – | – |
| CS(=O)(=O)c1cc(C(F)(F)F)ccc1C(=O)C(C#N)C(=O)C1CC1 (centres unmarked) [diketonitrile] | – | – | – | – | improved tolerance | – | – |
| CS(=O)(=O)c1cc(C(F)(F)F)ccc1C(=O)c1cnoc1C1CC1 [isoxaflutole] | – | – | – | – | – | entirely bleached | normal greening |
| CS(=O)(=O)c1ccc(C(=O)C2C(=O)CCCC2=O)c(Cl)c1COCC(F)(F)F [tembotrione] | – | – | – | – | improved tolerance | entirely bleached | normal greening |
